# US9499493B2, “2,4-pyrimidinediamine compounds and their uses” (Rigel Pharmaceuticals, Inc., priority 2002, dated 2016)
# Structures can show the parent of a compound that is named as a salt.
# Key:
# [1] = test system: cultured human mast cells (CHMC); assay: CHMC low cell density ionomycin activation: tryptase assay; format: cell-based
# [2] = test system: cultured human mast cells (CHMC); assay: CHMC low cell density IgE activation: tryptase assay; format: cell-based; conditions: anti-IgE
# Outline: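 CHMC resuspended in pre-warmed MT buffer at 1000-1500 cells/well (donor-dependent) and preincubated 1 hr at 37° C, then stimulated with anti-IgE for 30 min at 37° C; unstimulated wells got MT alone. Supernatant tryptase activity read with tryptase substrate after 30 min at room temperature.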
IC50 [1] [µM],IC50 [2] [µM],"IC50 ([1]; Homo sapiens, Mast cell) [µM]","IC50 ([2]; Homo sapiens, Mast cell) [µM]",SMILES
> 10,0.761,,,"CON=C(N)COc1ccc(Nc2ncc(F)c(Nc3cccc(O)c3)n2)cc1 [R945167, 5-Fluoro-N4-(3-hydroxyphenyl)-N2-[4-(2-methoxyimino(amino)ethyleneoxy)phenyl]-2,4-pyrimidinediamine]"
> 10,10,,,"Oc1cccc(Nc2nc(Nc3ccc(OCC4=NCCCN4)cc3)ncc2F)c1 [R945169, 5-Fluoro-N4-(3-hydroxyphenyl)-N2-[4-(1,4,5,6-tetrahydro-2-pyrimidyl)methyleneoxyphenyl]-2,4-pyrimidinediamine]"
> 10,0.661,,,"CNC(=O)COc1ccc(Nc2ncc(F)c(Nc3cccc(O)c3)n2)cc1 [R945170, 5-Fluoro-N4-(3-hydroxyphenyl)-N2-[4-(N-methylamino)carbonylmethyleneoxyphenyl]-2,4-pyrimidinediamine]"
> 10,1.33,,,"NC(=O)COc1ccc(Nc2nc(Nc3ccc4c(c3)OCCO4)ncc2F)cc1 [R945171, N4-(4-Aminocarbonylmethyleneoxyphenyl)-N2-(3,4-ethylenedioxyphenyl)-5-fluoro-2,4-pyrimidinediamine]"
> 10,1.18,,,"N#CCOc1ccc(Nc2nc(Nc3ccc4c(c3)OCCO4)ncc2F)cc1 [R945172, N4-(4-Cyanomethyleneoxyphenyl)-N2-(3,4-ethylenedioxyphenyl)-5-fluoro-2,4-pyrimidinediamine]"
> 10,0.562,,,"O=C1CN=C2COc3ccc(Nc4nc(Nc5cccc(O)c5)ncc4F)cc3N12 [R945236, N4-[2,4-Dihydro-1-oxo-4H-imidazo[2,1-c][1,4]benzoxazin-8-yl]-5-fluoro-N2-(3-hydroxyphenyl)-2,4-pyrimidinediamine]"
> 10,0.71,,,CS(=O)(=O)Nc1cccc(Nc2ncc(F)c(Nc3cccc(NS(C)(=O)=O)c3)n2)c1 [R950100]
> 10,3.02,,,"Nc1ccc(Nc2ncc(F)c(Nc3ccc(N)cc3)n2)cc1 [R950122, N2,N4-Bis(4-aminophenyl)-5-fluoro-2,4-pyrimidinediamine]"
> 10,2.23,,,"Nc1cccc(Nc2nc(Nc3cccc(Nc4ncc(F)c(Nc5cccc(N)c5)n4)c3)ncc2F)c1 [R950137, N4-(3-Aminophenyl)-N2-[[N3-[N4-(3-aminophenyl)]-5-fluoro-2,4-pyrimidinediamine]aminophenyl]-5-fluoro-2,4-pyrimidinediamine]"
9.52,1.27,,,"O=C(NCCNCc1ccccc1)c1cc2cc(Nc3ncc(F)c(Nc4ccc5oc(C(=O)NCCNCc6ccccc6)cc5c4)n3)ccc2o1 [R950169, N2,N4-Bis[2-(2-(N-benzylamino)ethyleneamoinocarbonyl)-benzofurane-5-yl]-5-fluoro-2,4-pyrimidinediamine]"
> 10,0.585,,,"CC(CO)Nc1cccc(Nc2ncc(F)c(Nc3cccc(NC(C)CO)c3)n2)c1 (centres unmarked) [R950171, N2,N4-Bis[3-N-(2-hydroxy-1-methylethyl)aminophenyl]-5-fluoro-2,4-pyrimidinediamine]"
> 10,4.62,,,"Fc1cnc(Nc2cccc(NCCOCc3ccccc3)c2)nc1Nc1cccc(NCCOCc2ccccc2)c1 [R950174, N2,N4-Bis[3-(N-benzyloxyethyleneamino)phenyl]-5-fluoro-2,4-pyrimidinediamine]"
> 10,1.69,,,"Nc1cccc(Nc2ncc(F)c(Nc3cccc(NCCOCc4ccccc4)c3)n2)c1 [R950175, N2-(3-Aminophenyl)-N4-[3-(N-benzyloxyethyleneamino)phenyl]-5-fluoro-2,4-pyrimidinediamine]"
> 10,1.34,,,"Nc1cccc(Nc2nc(Nc3cccc(NCCOCc4ccccc4)c3)ncc2F)c1 [R950176, N4-(3-Aminophenyl)-N2-[3-(N-benzyloxyethyleneamino)phenyl]-5-fluoro-2,4-pyrimidinediamine]"
8.81,1.03,,,"CCOC(=O)COc1cccc(Nc2ncc(F)c(Nc3cc(Cl)c(O)c(Cl)c3)n2)c1 [R950185, N4-(3,5-Dichloro-4-hydroxyphenyl)-N2-(3-ethoxycarbonylmethyleneoxyphenyl)-5-fluoro-2,4-pyrimidinediamine]"
> 10,0.244,,,"NC(=O)CNc1cccc(Nc2ncc(F)c(Nc3ccc4c(c3)OCCO4)n2)c1 [R950192, N2-[3-(N-Amino)carbonylmethyleneaminophenyl]-N4-(3,4-ethylenedioxyphenyl)-5-fluoro-2,4-pyrimidinediamine]"
> 10,0.61,,,"O=C(CNc1cccc(Nc2ncc(F)c(Nc3ccc4c(c3)OCCO4)n2)c1)N1CCOCC1 [R950193, N4-(3,4-Ethylenedioxyphenyl)-5-fluoro-N2-[3-(N-morpholino)carbonylmethyleneaminophenyl]-2,4-pyrimidinediamine]"
> 10,2.04,,,"CN1CCN(C(=O)CNc2cccc(Nc3ncc(F)c(Nc4ccc5c(c4)OCCO5)n3)c2)CC1 [R950194, N4-(3,4-Ethylenedioxyphenyl)-5-fluoro-N2-[3-(N—(N-methyl)-piperazino)carbonylmethyleneaminophenyl]-2,4-pyrimidinediamine]"
> 10,2.2,,,"CNCCNC(=O)CNc1cccc(Nc2ncc(F)c(Nc3ccc4c(c3)OCCO4)n2)c1 [R950196, N4-(3,4-Ethylenedioxyphenyl)-5-fluoro-N2-[3-(N-methylamino)ethyleneaminocarbonylmethyleneaminophenyl]-2,4-pyrimidinediamine]"

# Further lines, the molecule ahead of its results:
SMILES,IC50 [1] [µM],IC50 [2] [µM],"IC50 ([1]; Homo sapiens, Mast cell) [µM]","IC50 ([2]; Homo sapiens, Mast cell) [µM]"
"COc1c(C)cc(Nc2nc(Nc3cccc(OCC(=O)N4CCNCC4)c3)ncc2F)cc1C [R945156, N4-(3,5-Dimethyl-4-methoxyphenyl)-5-fluoro-N2-[3-(N-piperazino)carbonylmethyleneoxyphenyl]-2,4-pyrimidinediamine]",> 10,0.787,,
"COc1c(C)cc(Nc2nc(Nc3cccc(OCCN4CCNCC4)c3)ncc2F)cc1C [R945157, N4-(3,5-Dimethyl-4-methoxyphenyl)-5-fluoro-N2-[3-[2-(N-piperazino)ethoxy]phenyl]-2,4-pyrimidinediamine Dihydrochloride Salt]",> 10,1.48,,
"CNC(=O)COc1ccc(Nc2nc(Nc3ccc4c(c3)OCCO4)ncc2F)cc1 [R945173, N2-(3,4-Ethylenedioxyphenyl)-5-fluoro-N4-(4-methylaminocarbonylmethyleneoxyphenyl)-2,4-pyrimidinediamine]",> 10,1.42,,
"CON=C(N)COc1ccc(Nc2nc(Nc3ccc4c(c3)OCCO4)ncc2F)cc1 [R945175, N2-(3,4-Ethylenedioxyphenyl)-5-fluoro-N4-[4-methoxyimino(amino)ethyleneoxyphenyl]-2,4-pyrimidinediamine]",> 10,1.65,,
"CNC(=O)COc1cccc(Nc2ncc(F)c(Nc3cnc4c(c3)OCC(=O)N4)n2)c1 [R945242, 5-Fluoro-N2-(3-methylaminocarbonylmethyleneoxyphenyl)-N4-[2H-pyrido[3,2-b]-1,4-oxazin-3(4H)-one-7-yl]-2,4-pyrimidinediamine]",> 10,0.247,,
"CS(=O)(=O)Nc1ccc(Nc2ncc(F)c(Nc3ccc(NS(C)(=O)=O)cc3)n2)cc1 [R950083, N2,N4-Bis[(4-methylsulfonylamino)phenyl]-5-fluoro-2,4-pyrimidinediamine]",> 10,> 10,,
"O=[N+]([O-])c1ccc(NCCO)c(Nc2ncc(F)c(Nc3cc([N+](=O)[O-])ccc3NCCO)n2)c1 [R950150, N2,N4-Bis(2-hydroxyethyleneamino-5-nitrophenyl)-5-fluoro-2,4-pyrimidinediamine]",> 10,> 10,,
"O=C(NCCO)c1cc2cc(Nc3ncc(F)c(Nc4ccc5oc(C(=O)NCCO)cc5c4)n3)ccc2o1 [R950167, N2,N4-Bis[2-(2-hydroxyethyleneamoinocarbonyl)-benzofurane-5-yl]-5-fluoro-2,4-pyrimidinediamine]",> 10,> 10,,
"NCCNC(=O)c1cc2cc(Nc3ncc(F)c(Nc4ccc5oc(C(=O)NCCN)cc5c4)n3)ccc2o1 [R950168, N2,N4-Bis[2-(2-aminoethyleneamoinocarbonyl)-benzofurane-5-yl]-5-fluoro-2,4-pyrimidinediamine]",8.65,6.5,,
"CNCCNC(=O)c1cc2cc(Nc3ncc(F)c(Nc4ccc5oc(C(=O)NCCNC)cc5c4)n3)ccc2o1 [R950170, N2,N4-Bis[2-[2-(methylamino)ethyleneaminocarbonyl]-benzofurane-5-yl]-5-fluoro-2,4-pyrimidinediamine]",> 10,> 10,,
"O=C(c1cc2cc(Nc3ncc(F)c(Nc4ccc5oc(C(=O)N6CCOCC6)cc5c4)n3)ccc2o1)N1CCOCC1 [R950172, N2,N4-Bis[2-(N-morpholinocarbonyl)benzofurane-5-yl]-5-fluoro-2,4-pyrimidinediamine]",> 10,0.983,,
"O=C(NCCN1CCOCC1)c1cc2cc(Nc3ncc(F)c(Nc4ccc5oc(C(=O)NCCN6CCOCC6)cc5c4)n3)ccc2o1 [R950173, N2,N4-Bis[2-(2-N-morpholinoethyleneamoinocarbonyl)-benzofurane-5-yl]-5-fluoro-2,4-pyrimidinediamine]",> 10,2.37,,
"O=C(COc1cccc(Nc2ncc(F)c(Nc3cc(Cl)c(O)c(Cl)c3)n2)c1)N1CCOCC1 [R950187, N4-(3,5-Dichloro-4-hydroxyphenyl)-5-fluoro-N2-[3-(N-morpholino)carbonylmethyleneoxyphenyl]-2,4-pyrimidinediamine]",> 10,0.724,,
"O=C(COc1cccc(Nc2ncc(F)c(Nc3cc(Cl)c(O)c(Cl)c3)n2)c1)N1CCNCC1 [R950188, N4-(3,5-Dichloro-4-hydroxyphenyl)-5-fluoro-N2-[3-(N-piperazino)carbonylmethyleneoxyphenyl]-2,4-pyrimidinediamine]",> 10,2.33,,
CNc1ncc(F)c(Nc2ccc3c(c2)OCCO3)n1 [R950189],,,> 10,10
